Like-named read-outs stand apart in the source and are kept apart here.
What was measured:
[1] = target: T1, recombinant human FLAP protein (Homo sapiens, UniProt P20292); assay: FLAP binding assay (SPA, displacement of [125I]L-691,831)
T1 construct: made in house; host or cells: Sf9 insect cells (100,000×g membrane pellet used)
T1 sequence (P20292 1-161): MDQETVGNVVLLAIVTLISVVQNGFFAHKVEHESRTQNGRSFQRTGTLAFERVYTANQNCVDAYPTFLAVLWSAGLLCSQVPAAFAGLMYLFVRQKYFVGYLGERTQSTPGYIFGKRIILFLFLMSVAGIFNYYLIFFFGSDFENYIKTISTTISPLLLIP
Experimental: Assessment of Biological Properties 1. Binding Assay
Compounds are assessed for the ability to bind to FLAP in a binding assay that measures compound-specific displacement of an iodinated (^125I) FLAP inhibitor via a Scintillation Proximity Assay format (adapted from S. Charleson et al., Mol. Pharmacol., 1992, 41, 873-879).
Cell pellets produced from sf9 insect cells expressing recombinant human FLAP protein are resuspended in buffer A [15 mM Tris-HCl (pH 7.5), 2 mM MgCl2, 0.3 mM EDTA, 1 mM PMSF]. The cells are lysed with a Dounce homogenizer and the material is centrifuged at 10,000×g for 10 minutes. The supernatant is then collected and centrifuged at 100,000×g for 60 minutes. To prepare membrane protein for an assay, an aliquot of the 100,000×g pellet is resuspended in 1 ml of buffer A, Dounce homogenized, and finally subjected to polytron mixing (30 seconds). Membrane protein (25 μl, 5 μg) is mixed with WGA SPA beads (Amersham) and stirred for 1 h. […] (final concentrations: beads, 200 μg/well; protein, 5 μg/well; [^125I] probe, 0 08 nM/well (17 nCi/well). The plates are shaken for 2 h before reading on a Microbeta plate reader. Non-specific binding is determined by the addition of 10 μM cold L-691,831 compound.

[2] = system: synthesis of LTB4 in human whole blood; assay: Human whole blood assay (inhibition of LTB4 synthesis, calcimycin stimulated); type: cell-based; conditions: heparinized human whole blood, calcimycin 20 μM, plasma LTB4
Experimental: Compounds are additionally tested in a human whole blood assay to determine their ability to inhibit the synthesis of LTB4 in a cellular system. Compounds are combined with heparinized human whole blood and incubated for 15 minutes at 37° C. Calcimycin (20 μM final, prepared in phosphate-buffered saline, pH 7.4) is then added and the mixture is incubated for another 30 minutes at 37° C. The samples are centrifuged for 5 min at low speed (1500×g) and the plasma layer is removed. Plasma LTB4 concentrations are then measured using an antibody-based homogenous time-resolved fluorescence method (CisBio, Bedford, Mass.).

[3] = membranes of sf9 cells expressing recombinant human FLAP, [125I]L-691,831 probe, read-out: FLAP binding IC50

Row | Structure (SMILES) | IC50 [1, 3] [nM] | IC50 [2] [nM] | IC50 [1] [nM]
1 | CC(C)[C@@](C)(c1ccc(-c2cnc(N)nc2)cc1)c1noc(-c2ccnn2C)n1 [Example 32, 5-(4-{(2S)-3-methyl-2-[5-(1-methyl-1H-pyrazol-5-yl)-1,2,4-oxadiazol-3-yl]butan-2-yl}phenyl)pyrimidin-2-amine] | 18 | 2500 | 
2 | CC(C)(c1ccc(-c2cnc(N)nc2)cc1)c1noc(-c2ccc(NCCS(C)(=O)=O)nc2)n1 [Example 71, 5-(4-{2-[5-(6-{[2-(methylsulfonyl)ethyl]amino}pyridin-3-yl)-1,2,4-oxadiazol-3-yl]propan-2-yl}phenyl)pyrimidin-2-amine] | 17 | 900 | 
3 | CC(C)C(C)(c1ccc(-c2cnc(N)nc2)cc1)c1noc(-c2ccc(C(N)=O)nc2)n1 (stereo not shown) [Example 125, 5-(3-{2-[4-(2-aminopyrimidin-5-yl)phenyl]-3-methylbutan-2-yl}-1,2,4-oxadiazol-5-yl)pyridine-2-carboxamide] | 1.5 | 290 | 
4 | COCCOCc1nc(C(C)(c2ccc(-c3cnc(N)nc3)cc2)C(C)C)no1 (stereo not shown) [Example 229, 5-(4-{1-[5-(2-Methoxy-ethoxymethyl)-[1,2,4]oxadiazol-3-yl]-1,2-dimethyl-propyl}-phenyl)-pyrimidin-2-ylamine] | 99 | 550 | 
5 | CN(C)C(=O)Cn1cc(-c2nc([C@@](C)(c3ccc(-c4ccc(N)nc4)cc3)C3CC3)no2)cn1 [Example 172, 2-[4-(3-{(R)-1-[4-(6-Amino-pyridin-3-yl)-phenyl]-1-cyclopropyl-ethyl}-[1,2,4]oxadiazol-5-yl)-pyrazol-1-yl]-N,N-dimethyl-acetamide] | 1.1 | 66 | 
6 | CC(C)[C@](C)(c1ccc(-c2cnc(N)nc2)cc1)c1noc(-c2cnn(C)c2)n1 (single isomer, unassigned) [Example 46] |  | 33 | 1.6
7 | CC(C)C(C)(c1ccc(-c2cnc(N)nc2)cc1)c1noc(C2(C(=O)O)CCCCC2)n1 (stereo not shown) [Example 145, 1-(3-{2-[4-(2-aminopyrimidin-5-yl)phenyl]-3-methylbutan-2-yl}-1,2,4-oxadiazol-5-yl)cyclohexanecarboxylic acid] | 17 | 2500 | 
8 | CC(c1ccc(-c2cnc(N)nc2)cc1)(c1noc(N2CCC[C@H](O)C2)n1)C1CC1 (stereo partly drawn) [Example 288, (S)-1-(3-{1-[4-(2-Amino-pyrimidin-5-yl)-phenyl]-1-cyclopropyl-ethyl}-[1,2,4]oxadiazol-5-yl)-piperidin-3-ol] | 2.5 | 200 | 
9 | CC(C)C(C)(c1ccc(-c2cnc(N)nc2)cc1)c1noc(-c2ccnn2C)n1 (stereo not shown) [Example 18, 5-(4-{3-methyl-2-[5-(1-methyl-1H-pyrazol-5-yl)-1,2,4-oxadiazol-3-yl]butan-2-yl}phenyl)pyrimidin-2-amine] | 3.3 | 320 | 
10 | Cn1cc(-c2nc(C(C)(c3ccc(-c4cnc(N)nc4)cc3)C3CC3)no2)cn1 (stereo not shown) [Example 22, 5-(4-{1-cyclopropyl-1-[5-(1-methyl-1H-pyrazol-4-yl)-1,2,4-oxadiazol-3-yl]ethyl}phenyl)pyrimidin-2-amine] | 4.2 | 46 | 
11 | CN(C)C(=O)Cn1cc(-c2nc([C@@](C)(c3ccc(-c4cnc5c(c4)OCCN5)cc3)C3CC3)no2)cn1 [Example 254, 2-[4-(3-{(R)-1-Cyclopropyl-1-[4-(3,4-dihydro-2H-pyrido[3,2-b][1,4]oxazin-7-yl)-phenyl]-ethyl}-[1,2,4]oxadiazol-5-yl)-pyrazol-1-yl]-N,N-dimethyl-acetamide] | 2.8 | 210 | 
12 | CNC(=O)Cn1cc(-c2nc([C@@](C)(c3ccc(-c4cnc(N)nc4)cc3)C3CC3)no2)cn1 [Example 230, 2-[4-(3-{(R)-1-[4-(2-Amino-pyrimidin-5-yl)-phenyl]-1-cyclopropyl-ethyl}-[1,2,4]oxadiazol-5-yl)-pyrazol-1-yl]-N-methyl-acetamide] | 3.8 | 160 | 
13 | CC(C)N1CCN(c2nc(C(C)(c3ccc(-c4cnc(N)nc4)cc3)C(C)C)no2)CC1 (stereo not shown) [Example 264, 5-(4-{1-[5-(4-Isopropyl-piperazin-1-yl)-[1,2,4]oxadiazol-3-yl]-1,2-dimethyl-propyl}-phenyl)-pyrimidin-2-ylamine] | 11 | 120 | 
14 | CNc1ncc(-c2ccc([C@](C)(c3noc(-c4cnn(CC(=O)N(C)C)c4)n3)C3CC3)cc2)cn1 [Example 226, 2-[4-(3-{(R)-1-Cyclopropyl-1-[4-(2-methylamino-pyrimidin-5-yl)-phenyl]-ethyl}-[1,2,4]oxadiazol-5-yl)-pyrazol-1-yl]-N,N-dimethyl-acetamide] | 2 | 30 | 
15 | CN(C)C(=O)Cn1cc(-c2nc(C(C)(c3ccc(-c4ccc(F)nc4N)cc3)C3CC3)no2)cn1 (stereo not shown) [Example 277, 2-[4-(3-{1-[4-(2-Amino-6-fluoro-pyridin-3-yl)-phenyl]-1-cyclopropyl-ethyl}-[1,2,4]oxadiazol-5-yl)-pyrazol-1-yl]-N,N-dimethyl-acetamide] | 64 | > 5000 | 
16 | COc1ncccc1-c1nc(C(C)(c2ccc(-c3cnc(N)nc3)cc2)C(C)C)no1 (stereo not shown) [Example 10, 5-(4-{2-[5-(2-methoxypyridin-3-yl)-1,2,4-oxadiazol-3-yl]-3-methylbutan-2-yl}phenyl)pyrimidin-2-amine] | 4.3 |  | 
17 | CC(C)[C@@](C)(c1ccc(-c2cnc(N)nc2)cc1)c1noc(N2CCC(O)CC2)n1 (single isomer, unassigned) [Example 224] |  | 760 | 
18 | CC(C)[C@@](C)(c1ccc(-c2cnc(N)nc2)cc1)c1noc(N2CCC(C)(O)CC2)n1 [Example 228, 1-(3-{(S)-1-[4-(2-Amino-pyrimidin-5-yl)-phenyl]-1,2-dimethyl-propyl}-[1,2,4]oxadiazol-5-yl)-4-methyl-piperidin-4-ol] |  | 550 | 
19 | CC(C)C(C)(c1ccc(-c2cnc(N)nc2)cc1)c1noc(C2CC2)n1 (stereo not shown) [Example 156, 5-{4-[2-(5-cyclopropyl-1,2,4-oxadiazol-3-yl)-3-methylbutan-2-yl]phenyl}pyrimidin-2-amine] | 15 |  | 
20 | CC(C)C(C)(c1ccc(-c2cnc(N)nc2)cc1)c1noc(-c2cnc(=O)[nH]c2)n1 (stereo not shown) [Example 154, 5-(3-{2-[4-(2-aminopyrimidin-5-yl)phenyl]-3-methylbutan-2-yl}-1,2,4-oxadiazol-5-yl)pyrimidin-2(1H)-one] | 3.3 |  | 
21 | C[C@](c1ccc(-c2cnc(N)nc2)cc1)(c1noc(N2CCC(O)CC2)n1)C1CC1 [Example 234, 1-(3-{(S)-1-[4-(2-Amino-pyrimidin-5-yl)-phenyl]-1-cyclopropyl-ethyl}-[1,2,4]oxadiazol-5-yl)-piperidin-4-ol] |  | 1000 | 
22 | CC(C)C(C)(c1ccc(-c2cnc(N)nc2)cc1)c1noc(N2CCC(O)CC2)n1 (stereo not shown) [Example 262, 1-(3-{1-[4-(2-Amino-pyrimidin-5-yl)-phenyl]-1,2-dimethyl-propyl}-[1,2,4]oxadiazol-5-yl)-piperidin-4-ol] |  | 84 | 
23 | CC(C)C(C)(c1ccc(-c2cnc(N)nc2)cc1)c1noc(-c2nccs2)n1 (stereo not shown) [Example 139, 5-(4-{3-methyl-2-[5-(1,3-thiazol-2-yl)-1,2,4-oxadiazol-3-yl]butan-2-yl}phenyl)pyrimidin-2-amine] | 4.4 |  | 
24 | CC(C)C(C)(c1ccc(-c2cnc(N)nc2)cc1)c1noc(N2CCC(C)(O)CC2)n1 (stereo not shown) [Example 216, 1-(3-{1-[4-(2-Amino-pyrimidin-5-yl)-phenyl]-1,2-dimethyl-propyl}-[1,2,4]oxadiazol-5-yl)-4-methyl-piperidin-4-ol] |  | 34 | 
25 | CC(c1ccc(-c2cnc(N)nc2)cc1)(c1noc(N2CCC(O)CC2)n1)C1CC1 (stereo not shown) [Example 205, 1-(3-{1-[4-(2-Amino-pyrimidin-5-yl)-phenyl]-1-cyclopropyl-ethyl}-[1,2,4]oxadiazol-5-yl)-piperidin-4-ol] |  | 68 | 
26 | CC(C)C(C)(c1ccc(-c2cnc(N)nc2)cc1)c1noc(-c2ccccc2S(C)(=O)=O)n1 (stereo not shown) [Example 149, 5-[4-(3-methyl-2-{5-[2-(methylsulfonyl)phenyl]-1,2,4-oxadiazol-3-yl}butan-2-yl)phenyl]pyrimidin-2-amine] | 58 |  | 
27 | Cc1csc(-c2nc(C(C)(c3ccc(-c4cnc(N)nc4)cc3)C(C)C)no2)n1 (stereo not shown) [Example 131, 5-(4-{3-methyl-2-[5-(4-methyl-1,3-thiazol-2-yl)-1,2,4-oxadiazol-3-yl]butan-2-yl}phenyl)pyrimidin-2-amine] | 8.7 |  | 
28 | COc1cncc(-c2ccc(C(C)(c3noc(-c4cnccn4)n3)C(C)C)cc2)c1 (stereo not shown) [Example 1, 2-(3-{2-[4-(5-methoxypyridin-3-yl)phenyl]-3-methylbutan-2-yl}-1,2,4-oxadiazol-5-yl)pyrazine] | 57 |  | 

From patent US8658661B2, “Oxadiazole inhibitors of leukotriene production” (Boehringer Ingelheim International GmbH, priority 2010, dated 2014)
